Laboratory results published in paper PMC11015056 (ACS Infectious Diseases, 2024).

Experiments:
WT N. gonorrhoeae gyrase = WT N. gonorrhoeae gyrase (Neisseria gonorrhoeae, UniProt P22118+P48371); assay: Gyrase-mediated DNA cleavage, WT gyrase; details: GyrA WT; induced by 8-methyl-2,4-quinazolinedione
[1] = target: T1, GyrA^S91F/D95G N. gonorrhoeae gyrase (Neisseria gonorrhoeae, UniProt P22118+P48371, D95G/S91F); assay: Gyrase-catalyzed DNA supercoiling, GyrA S91F/D95G gyrase; type: biochemical; details: ± standard error of the mean, read-out: IC50, inhibition of DNA supercoiling
T1 construct: His-tag; purchased GenScript
T1 sequence (P48371 whole entry, looked up, stated change not applied): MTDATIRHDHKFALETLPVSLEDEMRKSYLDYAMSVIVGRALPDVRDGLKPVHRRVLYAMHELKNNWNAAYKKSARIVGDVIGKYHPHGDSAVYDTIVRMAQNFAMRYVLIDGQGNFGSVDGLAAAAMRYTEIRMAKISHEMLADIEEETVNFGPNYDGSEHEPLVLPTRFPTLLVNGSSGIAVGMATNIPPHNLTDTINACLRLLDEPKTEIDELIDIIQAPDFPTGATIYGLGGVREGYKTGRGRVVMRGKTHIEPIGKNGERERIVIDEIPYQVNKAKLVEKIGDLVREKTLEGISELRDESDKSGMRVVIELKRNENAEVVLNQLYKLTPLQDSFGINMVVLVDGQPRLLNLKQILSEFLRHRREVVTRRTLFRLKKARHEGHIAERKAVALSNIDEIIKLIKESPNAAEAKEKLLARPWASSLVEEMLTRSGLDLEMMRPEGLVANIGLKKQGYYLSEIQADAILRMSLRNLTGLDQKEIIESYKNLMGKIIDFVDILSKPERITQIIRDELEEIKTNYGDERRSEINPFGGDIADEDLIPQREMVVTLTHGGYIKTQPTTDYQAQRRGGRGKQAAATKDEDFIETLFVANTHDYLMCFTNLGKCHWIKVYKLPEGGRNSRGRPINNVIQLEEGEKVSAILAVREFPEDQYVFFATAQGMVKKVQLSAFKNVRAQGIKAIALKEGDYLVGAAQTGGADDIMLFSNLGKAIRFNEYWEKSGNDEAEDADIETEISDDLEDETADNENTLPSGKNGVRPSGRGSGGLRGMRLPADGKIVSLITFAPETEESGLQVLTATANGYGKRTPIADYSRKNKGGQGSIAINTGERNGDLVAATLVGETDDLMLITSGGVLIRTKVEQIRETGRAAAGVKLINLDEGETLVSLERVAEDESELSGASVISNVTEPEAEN
T1 sequence (P22118 whole entry, stated change not applied): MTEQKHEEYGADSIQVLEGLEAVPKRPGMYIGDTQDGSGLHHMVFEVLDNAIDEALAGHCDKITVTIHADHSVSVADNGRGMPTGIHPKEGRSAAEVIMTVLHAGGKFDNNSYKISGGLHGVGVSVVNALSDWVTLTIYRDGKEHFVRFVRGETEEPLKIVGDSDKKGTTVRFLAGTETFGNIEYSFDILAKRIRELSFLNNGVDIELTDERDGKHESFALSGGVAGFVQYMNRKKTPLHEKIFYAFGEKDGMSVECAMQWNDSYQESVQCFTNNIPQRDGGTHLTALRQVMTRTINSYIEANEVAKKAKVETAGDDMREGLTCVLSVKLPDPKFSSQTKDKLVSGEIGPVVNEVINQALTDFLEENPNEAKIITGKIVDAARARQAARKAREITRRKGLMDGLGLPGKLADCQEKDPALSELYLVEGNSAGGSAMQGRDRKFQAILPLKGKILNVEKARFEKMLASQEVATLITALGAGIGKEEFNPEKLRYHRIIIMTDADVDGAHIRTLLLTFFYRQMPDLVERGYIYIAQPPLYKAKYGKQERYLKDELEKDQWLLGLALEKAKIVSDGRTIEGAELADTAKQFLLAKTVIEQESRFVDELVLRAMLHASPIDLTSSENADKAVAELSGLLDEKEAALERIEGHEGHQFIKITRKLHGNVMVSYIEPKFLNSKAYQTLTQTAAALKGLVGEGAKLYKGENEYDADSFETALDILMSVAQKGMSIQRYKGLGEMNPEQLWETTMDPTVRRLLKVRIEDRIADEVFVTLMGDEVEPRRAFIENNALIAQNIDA

[2] = target: T2, ParC^S87N/E91G N. gonorrhoeae topoisomerase IV (Neisseria gonorrhoeae, UniProt P48374, E91G/S87N); assay: Topoisomerase IV-catalyzed DNA decatenation, ParC S87N/E91G; type: biochemical
T2 sequence (P48374 1-768 S87N/E91G): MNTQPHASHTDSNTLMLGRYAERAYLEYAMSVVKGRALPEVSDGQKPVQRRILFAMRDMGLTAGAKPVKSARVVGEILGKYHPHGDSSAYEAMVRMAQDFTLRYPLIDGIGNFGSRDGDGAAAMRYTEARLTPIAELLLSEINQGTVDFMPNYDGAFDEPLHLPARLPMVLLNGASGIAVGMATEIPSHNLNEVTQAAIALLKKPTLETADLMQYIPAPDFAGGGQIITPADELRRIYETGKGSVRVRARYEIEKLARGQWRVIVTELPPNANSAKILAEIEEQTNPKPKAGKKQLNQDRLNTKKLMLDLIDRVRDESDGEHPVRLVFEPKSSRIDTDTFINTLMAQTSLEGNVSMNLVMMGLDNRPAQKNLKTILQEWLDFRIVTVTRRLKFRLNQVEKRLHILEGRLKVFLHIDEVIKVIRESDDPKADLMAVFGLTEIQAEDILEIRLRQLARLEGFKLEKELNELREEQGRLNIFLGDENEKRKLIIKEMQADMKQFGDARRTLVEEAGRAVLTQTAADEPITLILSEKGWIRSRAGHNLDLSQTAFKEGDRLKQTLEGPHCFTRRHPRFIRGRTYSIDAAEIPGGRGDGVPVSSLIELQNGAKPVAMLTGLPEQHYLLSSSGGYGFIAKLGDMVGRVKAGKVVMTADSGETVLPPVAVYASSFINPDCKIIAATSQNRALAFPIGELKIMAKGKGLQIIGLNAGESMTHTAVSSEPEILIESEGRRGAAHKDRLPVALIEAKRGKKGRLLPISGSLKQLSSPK

[3] = target: T3, ParC^E91G N. gonorrhoeae topoisomerase IV (Neisseria gonorrhoeae, UniProt P48374, E91G); assay: Topoisomerase IV-catalyzed DNA decatenation, ParC E91G; type: biochemical
T3 sequence (P48374 1-768 E91G): T2 sequence (P48374 1-768 S87N/E91G)

[4] = target: WT N. gonorrhoeae topoisomerase IV (Neisseria gonorrhoeae, UniProt P48374); assay: Topoisomerase IV-catalyzed DNA decatenation, WT; type: biochemical
Protocol: DNA decatenation assays were based on previously published protocols by Anderson et al.[79] and Aldred et al.[30] Assays contained 10 nM WT, 20 nM ParC^S87N, 35 nM ParC^E91G, or 35 nM ParC^S87N/E91GN. gonorrhoeae topoisomerase IV, 5 nM kDNA, and 1 mM ATP in 20 μL of 40 mM HEPES-KOH (pH 7.6), 25 mM NaCl, 100 mM KGlu, and 10 mM Mg(OAc)2. Assay mixtures were incubated at 37 °C for 10 min with WT, 15 min with ParC^S87N, and 30 min with ParC^E91G and ParC^S87N/E91GN. gonorrhoeae topoisomerase IV, which represents the minimum time required to completely decatenate the kDNA in the absence of a drug. Reactions were stopped, subjected to electrophoresis, and visualized as described for gyrase-catalyzed DNA supercoiling.

[5] = target: T4, ParC^S87N N. gonorrhoeae topoisomerase IV (Neisseria gonorrhoeae, UniProt P48374, S87N); assay: Topoisomerase IV-catalyzed DNA decatenation, ParC S87N; type: biochemical
T4 sequence (P48374 1-768 S87N): T2 sequence (P48374 1-768 S87N/E91G)

WT N. gonorrhoeae gyrase, sequence (P48371 whole entry): as the sequence (P48371 whole entry, looked up, stated change not applied) above
WT N. gonorrhoeae gyrase, sequence (P22118 whole entry): as the sequence (P22118 whole entry, stated change not applied) above

For `Cc1c(N2CC[C@@H](CN)C2)c(F)cc2c(=O)n(N)c(=O)n(C3CC3)c12` [8-Me-2,4-QD, 3-Amino-7-[(3S)-3-(aminomethyl)-1-pyrrolidinyl]-1-cyclopropyl-6-fluoro-8-methyl-2,4(1H,3H)-quinazolinedione], the “Max % DSB” value (WT N. gonorrhoeae gyrase) was 28.9% and the IC50 [1] was 19.7 µM.
With `O=C(O)c1cn(C2CC2)c2cc(N3CCNCC3)c(F)cc2c1=O` [Ciprofloxacin] the IC50 [2] was greater than 500 µM, the IC50 [3] was 301 ± 23.8 µM and the IC50 [4] was 13.7 µM. It also gave an IC50 [5] of 16.4 µM.
